Data as given in article PMC9508196 (Scientific Reports, 2022).
≈ marks a conversion by molar mass, not a printed value. Non-standard residues stand in square brackets, D forms with d. Residues, ends and D or L forms follow the SMILES beside them.

System: A. baumannii ATCC 19,606
Experiment: microbe, parasite or virus in culture
Conditions: 20 serial 24-h passages at half-MIC, MHB
Experimental: A. baumannii ATCC 19,606 was adjusted to approximately 10^6 CFU/ml in MHB. […] After 24 h incubation, bacterial suspensions of the wells at half-MIC concentration of tested agent were taken and washed 2 times with MHB to prepare the next initial-passage of bacteria. Twenty repeat passages were performed for each tested compound. Along with the test, a negative control was included: the MIC value of bacteria cultured in MHB-deionized water after 20 passages.

CC[C@@H](C)[C@@H](NC(=O)[C@@H](CCCCN)NC(=O)CNC(=O)[C@@H](C)NC(=O)[C@H](NC(=O)[C@@H](CCCCN)NC(=O)[C@@H](CCCCN)NC(=O)[C@H](NC(=O)[C@@H](CCCNC(=N)N)NC(=O)[C@@H](CCCNC(=N)N)NC(=O)[C@@H](Cc1ccccc1)NC(=O)[C@@H](CC(C)C)NC(=O)[C@H](N)CCCNC(=N)N)C(C)C)C(C)C)C(=O)N[C@H](C)C(=O)N[C@H](CCCCN)C(=O)N[C@H](CCCNC(=N)N)C(=O)N[C@@H](C(=O)N[C@H](Cc1c[nH]c2ccccc12)C(=O)N[C@H](CCCCN)C(N)=O)[C@H](C)CC [D-AP19] (H-[dR][dL][dF][dR][dR][dV][dK][dK][dV][dA]G[dK][dI][dA][dK][dR][dI][dW][dK]-NH2)
MIC after 20 passages: 7.81 µg/mL (≈ 3.32 µM)
